Measured values: article PMC5014220, “An α‐Helix‐Mimicking 12,13‐Helix: Designed α/β/γ‐Foldamers as Selective Inhibitors of Protein–Protein Interactions” (Angewandte Chemie (International Ed. in English), 2016)

Legend:
[1] = target: T1, p53/hDM2 interaction (FITC–p53_15–31 / hDM2(17-126) L33E) (Homo sapiens, UniProt Q00987, L33E); test: Fluorescence anisotropy (FA) competition assay against p53/hDM2; assay type: binding; details: for Displacement of FITC–p53_15–31 from hDM2 (in words): same conditions, lower asymptote of the competition curve not achieved at higher concentrations, IC50 ND; for IC50: 50 nM FITC–p53(15-31), 150 nM hDM2(17-126) L33E, 40 mM phosphate buffer pH 7.5, 200 mM NaCl, 0.02 mg mL−1 BSA, 5 % DMSO, read after 1 h at room temperature, triplicate, fit ± error
T1 construct: hDM2(17-126)

[2] = target: BODIPY–BAK/Bcl‐xL protein–protein interaction (Homo sapiens, UniProt Q07817); test: FA competition assay, BODIPY–BAK/Bcl-xL; assay type: binding; details: 50 nM BODIPY-Bak, 150 nM Bcl-xL, top concentration 222 μM, 1 h room temperature, triplicate
[3] = test system: α‐chymotrypsin (α‐CT); test: Proteolytic stability with α-chymotrypsin (HPLC); assay type: in vitro ADME; details: α-chymotrypsin type II from bovine pancreas, 1:10000 enzyme/substrate; peptide 200 μM stock in PBS pH 7.50, 2% DMSO; followed by analytical HPLC; fold versus p53_15–31
Excerpt: The proteolytic stability of α/β/γ‐peptides 1–8 was investigated using α‐chymotrypsin (α‐CT) as a representative protease, since this enzyme selectively hydrolyses the amide bond on the C‐terminal side of hydrophobic residues such as Leu, Trp, and Phe, all of which are present in the α/β/γ‐peptide sequences. The p53_15–31 peptide was also studied for comparison (see the Supporting Information). […] For the latter four peptides, the proteolytic activity corresponded to methyl ester hydrolysis of the C‐terminal Leu residue; in all eight cases, therefore, the hexapeptide core remained largely intact for the duration of the experiments.
IV. Proteolysis studies of peptides 1-8
α-Chymotrypsin Type II from bovine pancreas (lyophilized powder, MW = 25 kDa, ≥ 40 units/mg protein) was purchased from Sigma-Aldrich and used without further purification.
α/β/γ-Peptides and p53(15-31) peptide (200 µM stock in PBS buffer pH 7.50, 2% DMSO) were treated with α-Chymotrypsin Type II from bovine pancreas (0.02 µM stock solutions in PBS buffer pH 7.50) in a 1:10000 enzyme/substrate ratio. The degradation was followed with analytical HPLC (Ascentis® Express Peptide Column, injection volume: 20 µL, acetonitrile/water (0.1% TFA) 5-95% gradient) and the data was analysed to extract kinetic values.
1. HPLC traces of the positive control (native p53) in presence of α-Chymotrypsin
(1 picture or pasted object on this page, not shown here)

[4] = target: T2, FITC–NOXA B/Mcl‐1 protein–protein interaction (Homo sapiens, UniProt Q07820); test: FA competition assay, FITC–NOXA B/Mcl-1; assay type: binding; details: 50 nM FITC-NOXA B(68-87), 150 nM Mcl-1(172-327), top concentration 222 μM, 1 h room temperature, triplicate
T2 construct: Mcl-1(172-327)

Row | SMILES | Inhibitory activity on BODIPY–BAK/Bcl‐xL interaction [2] | Resistance to α‐CT relative to native p53_15–31 [3] | IC50 [1] | Inhibitory activity on FITC–NOXA B/Mcl‐1 interaction [4] | Displacement of FITC–p53_15–31 from hDM2 (in words) [1]
1 | COC(=O)CC[C@H](CC(C)C)NC(=O)[C@H]1CC[C@@H]1NC(=O)CC[C@H](Cc1ccccc1)NC(=O)[C@H]1CC[C@@H]1NC(=O)CC[C@@H](C)NC(=O)[C@H](Cc1ccccc1)NC(C)=O [Peptide 8] |  |  |  |  | effectively displaced FITC–p53_15–31 at micromolar concentrations
2 | COC(=O)CC[C@H](CC(C)C)NC(=O)[C@H]1CC[C@@H]1NC(=O)CC[C@H](Cc1c[nH]c2ccccc12)NC(=O)[C@H]1CC[C@@H]1NC(=O)CC[C@@H](C)NC(=O)[C@H](Cc1ccccc1)NC(C)=O [Peptide 6] |  | ≥ 32 fold |  |  | effectively displaced FITC–p53_15–31 at micromolar concentrations
3 | COC(=O)[C@H](CC(C)C)NC(=O)[C@H]1CC[C@@H]1NC(=O)CC[C@H](Cc1ccccc1)NC(=O)[C@H]1CC[C@@H]1NC(=O)CC[C@@H](C)NC(=O)[C@H](Cc1ccccc1)NC(=O)OC(C)(C)C [Peptide 3] |  | ≥ 10 fold | > 100 µM |  | 
4 | COC(=O)[C@H](CC(C)C)NC(=O)[C@H]1CC[C@@H]1NC(=O)CC[C@H](Cc1ccccc1)NC(=O)[C@H]1CC[C@@H]1NC(=O)CC[C@@H](C)NC(=O)[C@H](Cc1ccccc1)NC(C)=O [Peptide 7] |  | ≥ 10 fold | > 100 µM |  | 
5 | COC(=O)CC[C@H](CC(C)C)NC(=O)[C@H]1CC[C@@H]1NC(=O)CC[C@H](Cc1ccccc1)NC(=O)[C@H]1CC[C@@H]1NC(=O)CC[C@@H](C)NC(=O)[C@H](Cc1ccccc1)NC(=O)OC(C)(C)C [Peptide 4] |  | ≥ 32 fold | > 100 µM |  | 

The next lines start with results.

Row | Inhibitory activity on BODIPY–BAK/Bcl‐xL interaction [2] | Resistance to α‐CT relative to native p53_15–31 [3] | IC50 [1] | Inhibitory activity on FITC–NOXA B/Mcl‐1 interaction [4] | SMILES | Displacement of FITC–p53_15–31 from hDM2 (in words) [1]
6 | no inhibitory activity | ≥ 10 fold | 57 ± 22 µM | no inhibitory activity | COC(=O)[C@H](CC(C)C)NC(=O)[C@H]1CC[C@@H]1NC(=O)CC[C@H](Cc1c[nH]c2ccccc12)NC(=O)[C@H]1CC[C@@H]1NC(=O)CC[C@@H](C)NC(=O)[C@H](Cc1ccccc1)NC(=O)OC(C)(C)C [Peptide 1] | 
7 |  | ≥ 10 fold | > 100 µM |  | COC(=O)[C@H](CC(C)C)NC(=O)[C@H]1CC[C@@H]1NC(=O)CC[C@H](Cc1c[nH]c2ccccc12)NC(=O)[C@H]1CC[C@@H]1NC(=O)CC[C@@H](C)NC(=O)[C@H](Cc1ccccc1)NC(C)=O [Peptide 5] | 
8 | no inhibitory activity |  | 15 ± 2 µM | no inhibitory activity | COC(=O)CC[C@H](CC(C)C)NC(=O)[C@H]1CC[C@@H]1NC(=O)CC[C@H](Cc1c[nH]c2ccccc12)NC(=O)[C@H]1CC[C@@H]1NC(=O)CC[C@@H](C)NC(=O)[C@H](Cc1ccccc1)NC(=O)OC(C)(C)C [Peptide 2] | 
